Tests used:
Type in all cases: in vivo
[1] = system: Italian ryegrass (Lolium multiflorum); test: Test A preemergence, visual plant response rating; settings: for Ryegrass, Italian plant response rating: 125 g ai/ha, preemergence, 0 to 100 scale, 0 no effect, 100 complete control; for Ryegrass, Italian plant response rating (0 to 100 scale): 500 g ai/ha Preemergence, approx. 10 days
In short: (§1)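 Ratings 0–100 (100 = complete control), visual, vs untreated controls at ~10 days. Application pre- or postemergence; solvent mixture with surfactant; loam/sand medium.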

[2] = system: kochia (Kochia scoparia); test: Test A preemergence, visual plant response rating; settings: for Kochia plant response rating: 125 g ai/ha, preemergence, 0 to 100 scale, 0 no effect, 100 complete control; for Kochia plant response rating (0 to 100 scale): 500 g ai/ha Preemergence, approx. 10 days
In short: as §1

[3] = system: barnyardgrass (Echinochloa crus-galli); test: Test A preemergence, visual plant response rating; settings: for Barnyardgrass plant response rating: 125 g ai/ha, preemergence, 0 to 100 scale, 0 no effect, 100 complete control; for Barnyardgrass plant response rating (0 to 100 scale): 500 g ai/ha Preemergence, approx. 10 days
In short: as §1

[4] = system: ragweed (common ragweed, Ambrosia elatior); test: Test A preemergence, visual plant response rating; settings: for Ragweed plant response rating: 125 g ai/ha, preemergence, 0 to 100 scale, 0 no effect, 100 complete control; for Ragweed plant response rating (0 to 100 scale): 500 g ai/ha Preemergence, approx. 10 days
In short: as §1

[5] = system: foxtail, giant (giant foxtail, Setaria faberii); test: Test A preemergence, visual plant response rating; settings: for Foxtail, Giant plant response rating: 125 g ai/ha, preemergence, 0 to 100 scale, 0 no effect, 100 complete control; for Foxtail, Giant plant response rating (0 to 100 scale): 500 g ai/ha Preemergence, approx. 10 days
In short: as §1

[6] = system: pigweed (Amaranthus retroflexus); test: Test A preemergence, visual plant response rating; settings: for Pigweed plant response rating: 125 g ai/ha, preemergence, 0 to 100 scale, 0 no effect, 100 complete control; for Pigweed plant response rating (0 to 100 scale): 500 g ai/ha Preemergence, approx. 10 days
In short: as §1

[7] = system: barnyardgrass (Echinochloa crus-galli); test: Test B flooded paddy test, visual plant response rating; settings: 250 g ai/ha, Flood, applied to paddy water, 2-leaf stage, evaluated after 13 to 15 days
In short: (§2)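 Flooded-pot treatment: water 3 cm over the soil, chemical delivered into that water, depth unchanged for the duration. Assessed by eye versus controls following 13–15 greenhouse days; plants were at 2 leaves when dosed.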

[8] = system: sedge, umbrella (small-flower umbrella sedge, Cyperus difformis); test: as above; settings: 250 g ai/ha, Flood, applied to paddy water, 2-leaf stage, evaluated after 13 to 15 days
In short: as §2

[9] = system: ducksalad (Heteranhera limosa); test: as above; settings: 250 g ai/ha, Flood, applied to paddy water, 2-leaf stage, evaluated after 13 to 15 days
In short: as §2

[10] = system: rice (Oryza sativa); test: as above; settings: 250 g ai/ha, Flood, applied to paddy water, 2-leaf stage, evaluated after 13 to 15 days
In short: as §2

[11] = system: Italian ryegrass (Lolium multiflorum); test: Test A postemergence, visual plant response rating; settings: for Ryegrass, Italian plant response rating (0 to 100 scale): 500 g ai/ha, postemergence, 0 is no effect, 100 is complete control; for Ryegrass, Italian plant response rating: Postemergence, 125 g ai/ha, 0 to 100 scale (0 no effect, 100 complete control)
In short: as §1

[12] = system: kochia (Kochia scoparia); test: Test A postemergence, visual plant response rating; settings: for Kochia plant response rating (0 to 100 scale): 500 g ai/ha, postemergence, 0 is no effect, 100 is complete control; for Kochia plant response rating: Postemergence, 125 g ai/ha, 0 to 100 scale (0 no effect, 100 complete control)
In short: as §1

[13] = system: wheat (Triticum aestivum); test: Test A postemergence, visual plant response rating; settings: for Wheat plant response rating (0 to 100 scale): 500 g ai/ha, postemergence, 0 is no effect, 100 is complete control; for Wheat plant response rating: Postemergence, 125 g ai/ha, 0 to 100 scale (0 no effect, 100 complete control)
In short: as §1

[14] = system: corn (Zea mays); test: Test A postemergence, visual plant response rating; settings: for Corn plant response rating (0 to 100 scale): 500 g ai/ha, postemergence, 0 is no effect, 100 is complete control; for Corn plant response rating: Postemergence, 125 g ai/ha, 0 to 100 scale (0 no effect, 100 complete control)
In short: as §1

[15] = system: galium (catchweed bedstraw, Galium aparine); test: Test A postemergence, visual plant response rating; settings: for Galium plant response rating (0 to 100 scale): 500 g ai/ha, postemergence, 0 is no effect, 100 is complete control; for Galium plant response rating: Postemergence, 125 g ai/ha, 0 to 100 scale (0 no effect, 100 complete control)
In short: as §1

[16] = system: barnyardgrass (Echinochloa crus-galli); test: Test A postemergence, visual plant response rating; settings: for Barnyardgrass plant response rating (0 to 100 scale): 500 g ai/ha, postemergence, 0 is no effect, 100 is complete control; for Barnyardgrass plant response rating: Postemergence, 125 g ai/ha, 0 to 100 scale (0 no effect, 100 complete control)
In short: as §1

[17] = system: ragweed (common ragweed, Ambrosia elatior); test: Test A postemergence, visual plant response rating; settings: for Ragweed plant response rating (0 to 100 scale): 500 g ai/ha, postemergence, 0 is no effect, 100 is complete control; for Ragweed plant response rating: Postemergence, 125 g ai/ha, 0 to 100 scale (0 no effect, 100 complete control)
In short: as §1

[18] = system: foxtail, giant (giant foxtail, Setaria faberii); test: Test A postemergence, visual plant response rating; settings: for Foxtail, Giant plant response rating (0 to 100 scale): 500 g ai/ha, postemergence, 0 is no effect, 100 is complete control; for Foxtail, Giant plant response rating: Postemergence, 125 g ai/ha, 0 to 100 scale (0 no effect, 100 complete control)
In short: as §1

[19] = system: pigweed (Amaranthus retroflexus); test: Test A postemergence, visual plant response rating; settings: for Pigweed plant response rating (0 to 100 scale): 500 g ai/ha, postemergence, 0 is no effect, 100 is complete control; for Pigweed plant response rating: Postemergence, 125 g ai/ha, 0 to 100 scale (0 no effect, 100 complete control)
In short: as §1

[20] = system: blackgrass (Alopecurus myosuroides); test: Test A postemergence, visual plant response rating; settings: for Blackgrass plant response rating (0 to 100 scale): 500 g ai/ha, postemergence, 0 is no effect, 100 is complete control; for Blackgrass plant response rating: Postemergence, 125 g ai/ha, 0 to 100 scale (0 no effect, 100 complete control)
In short: as §1

CON=C(c1c(O)c(C)nn(C)c1=O)c1csc2ccccc12 (single isomer, unassigned) [Compound 45]
70: Galium plant response rating (0 to 100 scale) [15] | Ragweed plant response rating (0 to 100 scale) [17]
50: Kochia plant response rating (0 to 100 scale) [2] | Galium plant response rating [15]
0: Ryegrass, Italian plant response rating [1] | Kochia plant response rating [2] | Barnyardgrass plant response rating [3] | Barnyardgrass plant response rating (0 to 100 scale) [3] | Foxtail, Giant plant response rating [5] | Foxtail, Giant plant response rating (0 to 100 scale) [5] | Pigweed plant response rating [6] | Pigweed plant response rating (0 to 100 scale) [6] | Plant response rating, Barnyardgrass (0 to 100 scale, 0 is no effect, 100 is complete control) [7] | Plant response rating, Sedge, Umbrella (0 to 100 scale, 0 is no effect, 100 is complete control) [8] | Plant response rating, Ducksalad (0 to 100 scale, 0 is no effect, 100 is complete control) [9] | Plant response rating, Rice (0 to 100 scale, 0 is no effect, 100 is complete control) [10] | Ryegrass, Italian plant response rating [11] | Kochia plant response rating (0 to 100 scale) [12] | Kochia plant response rating [12] | Wheat plant response rating (0 to 100 scale) [13] | Wheat plant response rating [13] | Corn plant response rating (0 to 100 scale) [14] | Corn plant response rating [14] | Barnyardgrass plant response rating (0 to 100 scale) [16] | Barnyardgrass plant response rating [16] | Foxtail, Giant plant response rating (0 to 100 scale) [18] | Foxtail, Giant plant response rating [18] | Pigweed plant response rating [19] | Blackgrass plant response rating [20]
20: Ryegrass, Italian plant response rating (0 to 100 scale) [11] | Blackgrass plant response rating (0 to 100 scale) [20]
40: Ragweed plant response rating (0 to 100 scale) [4]
10: Ryegrass, Italian plant response rating (0 to 100 scale) [1] | Ragweed plant response rating [4] | Pigweed plant response rating (0 to 100 scale) [19]
30: Ragweed plant response rating [17]

CCc1cccc(C(=NOC)c2c(O)c(C)nn(C)c2=O)c1 [Compound 36]
20: Barnyardgrass plant response rating (0 to 100 scale) [3] | Corn plant response rating [14] | Pigweed plant response rating [19] | Blackgrass plant response rating (0 to 100 scale) [20]
80: Ragweed plant response rating (0 to 100 scale) [17]
10: Kochia plant response rating [2] | Barnyardgrass plant response rating [3] | Ragweed plant response rating [4] | Pigweed plant response rating [6] | Foxtail, Giant plant response rating (0 to 100 scale) [18] | Blackgrass plant response rating [20]
0: Foxtail, Giant plant response rating [5] | Plant response rating, Barnyardgrass (0 to 100 scale, 0 is no effect, 100 is complete control) [7] | Plant response rating, Sedge, Umbrella (0 to 100 scale, 0 is no effect, 100 is complete control) [8] | Plant response rating, Ducksalad (0 to 100 scale, 0 is no effect, 100 is complete control) [9] | Plant response rating, Rice (0 to 100 scale, 0 is no effect, 100 is complete control) [10] | Wheat plant response rating (0 to 100 scale) [13] | Wheat plant response rating [13] | Corn plant response rating (0 to 100 scale) [14] | Barnyardgrass plant response rating (0 to 100 scale) [16] | Barnyardgrass plant response rating [16] | Foxtail, Giant plant response rating [18]
60: Kochia plant response rating [12]
50: Ryegrass, Italian plant response rating (0 to 100 scale) [1] | Kochia plant response rating (0 to 100 scale) [2] | Foxtail, Giant plant response rating (0 to 100 scale) [5] | Ryegrass, Italian plant response rating (0 to 100 scale) [11] | Galium plant response rating [15]
30: Ryegrass, Italian plant response rating [1] | Pigweed plant response rating (0 to 100 scale) [6] | Ryegrass, Italian plant response rating [11]
70: Ragweed plant response rating (0 to 100 scale) [4] | Kochia plant response rating (0 to 100 scale) [12] | Galium plant response rating (0 to 100 scale) [15] | Ragweed plant response rating [17] | Pigweed plant response rating (0 to 100 scale) [19]

CCO/N=C(/c1c(O)c(C)nn(C)c1=O)c1cccc2ccccc12 [Compound 78]
70: Kochia plant response rating (0 to 100 scale) [12] | Foxtail, Giant plant response rating [18] | Blackgrass plant response rating [20]
0: Plant response rating, Barnyardgrass (0 to 100 scale, 0 is no effect, 100 is complete control) [7] | Plant response rating, Sedge, Umbrella (0 to 100 scale, 0 is no effect, 100 is complete control) [8] | Plant response rating, Ducksalad (0 to 100 scale, 0 is no effect, 100 is complete control) [9] | Plant response rating, Rice (0 to 100 scale, 0 is no effect, 100 is complete control) [10] | Wheat plant response rating (0 to 100 scale) [13] | Wheat plant response rating [13]
100: Pigweed plant response rating (0 to 100 scale) [6] | Galium plant response rating (0 to 100 scale) [15]
60: Kochia plant response rating [12]
50: Ryegrass, Italian plant response rating (0 to 100 scale) [1]
90: Ragweed plant response rating [4] | Ragweed plant response rating (0 to 100 scale) [4] | Foxtail, Giant plant response rating (0 to 100 scale) [5] | Galium plant response rating [15] | Ragweed plant response rating (0 to 100 scale) [17] | Pigweed plant response rating (0 to 100 scale) [19]
10: Kochia plant response rating [2]
20: Pigweed plant response rating [6] | Corn plant response rating [14]
80: Barnyardgrass plant response rating [3] | Barnyardgrass plant response rating (0 to 100 scale) [3] | Foxtail, Giant plant response rating [5] | Barnyardgrass plant response rating (0 to 100 scale) [16] | Ragweed plant response rating [17] | Foxtail, Giant plant response rating (0 to 100 scale) [18] | Pigweed plant response rating [19] | Blackgrass plant response rating (0 to 100 scale) [20]
30: Ryegrass, Italian plant response rating [1] | Kochia plant response rating (0 to 100 scale) [2] | Ryegrass, Italian plant response rating [11] | Corn plant response rating (0 to 100 scale) [14]
40: Ryegrass, Italian plant response rating (0 to 100 scale) [11] | Barnyardgrass plant response rating [16]

Reference: patent publication US20210045385A1, “PYRIDAZINONE-SUBSTITUTED KETOXIMES AS HERBICIDES” (FMC Corporation, priority 2018, published 2021)
